Data: patent US20080300298A1, “Honokiol Derivates For the Treatment of Proliferative Disorders” (priority 2005, published 2008)

Legend:
MM.1S cells = assay: combination with bortezomib; type: cell-based, human
Experimental: Assessment of HNK-induced cytotoxicity against patient MM cells: Cytotoxicity of HNK against fresh MM cells was determined as previously determined, see, for example, Mitsiades et al Cancer Cell. 2004; 5:221-230. Fresh MNCs separated from bone marrow samples derived from patients with MM were incubated with PE-conjugated anti-CD138 antibody and/or FITC-conjugated anti-CD38 antibody (BD Biosciences, San Diego, Calif.) for 30 minutes on ice and washed, followed by analysis using EPICS XL flow cytometer (Beckman Coulter, Hialeah, Fla.). A CD38^high fraction enriched for MM cells was determined in side and forward scatter panel in each case. The expression of CD138 on gated cells was also evaluated. After HNK-treatment for 48 h, cells were harvested and percentage of CD38^high cells with or without HNK-treatment was evaluated. […] Cells were stained with propidium iodide (PI; 50 μg/mL; Sigma, St Louis, Mo.), and cell cycle profile was determined by using the program M software on an EPICS XL flow cytometer (Beckman Coulter, Hialeah, Fla.). […] Fluorescence intensity of TUNEL and APO 2.7 staining was determined using on EPICS XL flow cytometer. Cytotoxicity was determined by trypan blue exclusion assay. […] Cell growth and induction of apoptosis were determined both by colorimetric assay and now cytometric detection of APO2.7 after 48 h treatment. […] DNA synthesis was measured by [^3H]-thymidine uptake. […]

PARP in KBM-5 cells = assay: PARP cleavage assay; type: cell-based, human; details: KBM-5, TNF 1 nM with honokiol (25 mM printed)
Experimental: (D) depicts that honokiol enhances TNF-induced cell death.
PARP cleavage assay. For detection of cleavage products of PARP, whole-cell extracts were prepared by subjecting honokiol-treated cells to lysis in lysis buffer (20 mM Tris, pH 7.4; 250 mM NaCl; 2 mM EDTA, pH 8.0; 0.1% TritonX-100; 0.01 mg/ml aprotinin; 0.005 mg/ml leupeptin; 0.4 mM PMSF; and 4 mM NaVO4). Lysates were spun at 14000 rpm for 10 min to remove insoluble material, resolved by 10% SDS PAGE, and probed with PARP antibodies.
By using caspase-activated PARP cleavage, it was shown that the enhanced cytotoxicity was due to apoptosis. TNF-induced PARP cleavage was enhanced in the honokiol-treated cells (FIG. 26C).

## C=CCc1ccc(O)c(-c2ccc(O)c(CC=C)c2)c1 [HNK, Honokiol]
MM.1S cells; 8 h, Western blotting
  Bortezomib-induced up-regulation of Hsp27, p-Hsp27 and Hsp70: significantly blocked
MM.1S cells; HNK and bortezomib, 48 h
  cytotoxicity and apoptosis of combined treatment with bortezomib: enhanced the cytotoxicity and induction of apoptosis compared to each drug alone
PARP in KBM-5 cells
  TNF-induced PARP cleavage: enhanced
